This assay concerns the target HIV-1 protease (Human immunodeficiency virus type 1 group M subtype B, UniProt P04585). Kind of assay: biochemical. The note with it: for inhibition at 0.37 µM: read-out: HIV-1 Protease % Inhib, dose 0.370 uM; for inhibition at 0.123 µM: read-out: HIV-1 Protease % Inhib, dose 0.123 uM; for inhibition at 1 µM: read-out: HIV-1 Protease % Inhib, dose 1.000 uM; for inhibition at 100 µM: read-out: HIV-1 Protease % Inhib, dose 100.000 uM; for IC50: HIV-1 Protease IC50. The method, then:
The HIV protease screening assay is based on fluorescently labeled substrate which can be resolved from nonlabeled cleavage product using special beads coated with streptavidin. The substrate is biotinylated at the amino terminal arginine and fluorescently labeled with fluorescein isothiocynate (FITC) at the carboxyl terminal lysine. This assay has been employed to detect novel, nonpeptidic inhibitors of HIV-1 protease. Substrate (20 μl of 0.2 μM), sample (10 μl of desired concentration), and enzyme (10 μl of 0.1 μM) are added to a 96 well pandex plate. The assay is run in 0.1M sodium acetate buffer at pH 5.5 in the presence of 1.0M sodium chloride and 0.05% NP-40 with incubated in the dark for one hour at room temperature. Strepavidin coated polystyrene beads {40 μl of 0.1% (w/v)} are added and the plate is incubated in the dark for an additional half hour. The labeled cleavage product is separated from the unreacted substrate via filtration and is read on the Idexx screen machine. The data are analyzed by appropriate computer algorithms to ascertain percent inhibition values.

The mark [1] stands for this setting: dose 1.100 uM, read-out: HIV-1 Protease % Inhib.
The mark [2] stands for this setting: dose 3.300 uM, read-out: HIV-1 Protease % Inhib.
Setting [3] is: dose 10.000 uM, read-out: HIV-1 Protease % Inhib.
Setting [4] is: dose 30.000 uM, read-out: HIV-1 Protease % Inhib.
[5] abbreviates: read-out: HIV-1 Protease % Inhib, dose 1.100 uM.
[6] abbreviates: read-out: HIV-1 Protease % Inhib, dose 3.300 uM.
The mark [7] stands for this setting: read-out: HIV-1 Protease % Inhib, dose 10.000 uM.
[8] abbreviates: read-out: HIV-1 Protease % Inhib, dose 30.000 uM.

Structures are written as SMILES. Like-named read-outs stand apart in the source and are kept apart here.

For `CC(O)CC1CCCCc2c1oc(=O)c(C(c1ccccc1)C1CC1)c2O` (centres unmarked) [Example 192, 3-(Cyclopropylphenylmethyl)-6,7,8,9-tetrahydro-4-hydroxy-9-(2-hydroxypropyl)-cyclohepta[b]pyran-2(5H)-one], the inhibition at 1.1 µM under setting [1] worked out at 24.9%. Also, the inhibition at 3.3 µM under setting [2] came out at 68.8%. Besides, under setting [3], the inhibition at 10 µM worked out at 102%. Besides, the inhibition at 30 µM under setting [4] came to 102%.

As to `COCOCc1ccc(C(c2c(O)c3c(oc2=O)CCCCCC3)C2CC2)o1` (centres unmarked) [Example 386], the inhibition at 1.1 µM under setting [1] turned out to be 14.3%. Also, the inhibition at 3.3 µM under setting [2] stood at 35.4%. Under setting [3], the inhibition at 10 µM is 64.5%. The inhibition at 30 µM under setting [4] was determined as 96.3%.

For `CC(C)C(c1ccccc1)c1c(O)c2c(oc1=O)CCCCCC2` (centres unmarked) [Example 227, 2H-Cycloocta[b]pyran-2-one,5,6,7,8,9,10-hexahydro-4-hydroxy-3-(2-methyl-1-phenylpropyl)-], the inhibition at 0.37 µM stood at 41.7%. Besides, under setting [5], the inhibition at 1.1 µM was determined as 81.1%. In addition, the inhibition at 3.3 µM under setting [6] was found to be 91.1%. Besides, the inhibition at 10 µM under setting [7] came out at 90.1%. Also, the inhibition at 30 µM under setting [8] came out at 80.9%.

As to `O=C(C=Cc1ccccc1)Nc1cccc(C(c2c(O)c3c(oc2=O)CCCCCC3)C2CC2)c1` (centres unmarked) [Example 208], the inhibition at 1.1 µM under setting [1] turned out to be 22.9%. For the same compound, under setting [2], the inhibition at 3.3 µM was determined as 57.6%. Moreover, the inhibition at 10 µM under setting [3] worked out at 76.8%. The inhibition at 30 µM under setting [4] amounted to 84.4%.

As for `O=c1oc2c(c(O)c1C(c1cccc(NS(=O)(=O)c3ccc(I)cc3)c1)C1CC1)CCCCCC2` (centres unmarked) [Example 300, N-[3-[Cyclopropyl(5,6,7,8,9,10-hexahydro-4-hydroxy-2-oxo-2H-cycloocta[b]pyran-3-yl)methyl]phenyl]-4-iodo-benzenesulfonamide], the inhibition at 0.123 µM was 68.8% and the inhibition at 0.37 µM was found to be 92.2%. In addition, the inhibition at 1.1 µM under setting [5] was 101%. Besides, under setting [6], the inhibition at 3.3 µM came to 102%. Further, the inhibition at 10 µM under setting [7] came out at 108%. Besides, the inhibition at 30 µM under setting [8] was 108%.

With `CCC(CCCc1ccccc1)c1c(O)c2ccccc2oc1=O` (centres unmarked) [Example 156, 3-(1-Ethyl4-phenyl-butyl)-4-hydroxy-chromen-2-one], the inhibition at 1 µM came out at 17.1% and the inhibition at 100 µM was determined as 63.7%. In addition, the inhibition at 10 µM under setting [7] stood at 33.6%.

Take `CC(=O)Oc1ccc(C(C)(C)c2c(O)c3ccccc3oc2=O)cc1` [Example 150, Acetic acid 4-(1-(4-Hydroxy-2-oxo-2H-chromen-3-yl)-l-methyl-ethyl)-phenylester]: the inhibition at 1 µM is < 10% and the inhibition at 100 µM worked out at 93%. The inhibition at 10 µM under setting [7] is 62.4%.

Consider `CC(=O)Nc1nc(C)c(S(=O)(=O)Nc2cccc(C(c3c(O)c4c(oc3=O)CCCCCC4)C3CC3)c2)s1` (centres unmarked) [Example 322, N-[5-[[[3-[Cyclopropyl(5,6,7,8,9,10-hexahydro-4-hydroxy-2-oxo-2H-cycloocta[b]pyran-3-yl)methyl]phenyl]amino]sulfonyl]-4-methyl-2-thiazolyl]-acetamide], for which the inhibition at 1.1 µM under setting [1] stood at 22.3%. Also, the inhibition at 3.3 µM under setting [2] came to 61.1%. Further, the inhibition at 10 µM under setting [3] turned out to be 91.8%. For the same compound, the inhibition at 30 µM under setting [4] was 106%.

The term IC50 denotes the concentration needed to halve the response being measured. Low values mean greater potency, high ones weaker potency. In the case of `CC(C)C(c1ccc(Br)cc1)c1c(O)c2ccccc2oc1=O` (centres unmarked) [Example 12, 3-(1-(4-Bromophenyl)-2-methylpropyl)-4-hydroxycoumarin], the IC50 is 12100 nM and the inhibition at 100 µM is 87.4%. The inhibition at 0.098 µM (read-out: HIV-1 Protease % Inhib, dose 0.098 uM) is < 10%. For the setting “read-out: HIV-1 Protease % Inhib, dose 0.196 uM”, the inhibition at 0.196 µM was < 10%. For the same compound, the inhibition at 0.39 µM (read-out: HIV-1 Protease % Inhib, dose 0.390 uM) is < 10%. For the same compound, the inhibition at 0.78 µM (read-out: HIV-1 Protease % Inhib, dose 0.780 uM) was 14%. Besides, the inhibition at 1.56 µM (read-out: HIV-1 Protease % Inhib, dose 1.560 uM) worked out at 17.1%. Moreover, the inhibition at 3.13 µM (read-out: HIV-1 Protease % Inhib, dose 3.130 uM) is 25.4%. Also, for the setting “read-out: HIV-1 Protease % Inhib, dose 6.250 uM”, the inhibition at 6.25 µM is 31.9%. Further, the inhibition at 12.5 µM (read-out: HIV-1 Protease % Inhib, dose 12.500 uM) worked out at 53.8%. For the same compound, where the note is “read-out: HIV-1 Protease % Inhib, dose 25.000 uM”, the inhibition at 25 µM is 66.5%. In addition, under “read-out: HIV-1 Protease % Inhib, dose 50.000 uM”, the inhibition at 50 µM came out at 74.7%. Where the note is “read-out: HIV-1 Protease % Inhib, dose 200.000 uM”, the inhibition at 200 µM was 87%.

On to `CCC(c1ccccc1)c1c(O)c2c(oc1=O)CCCCC2` (centres unmarked) [Example 110, 6,7,8,9-Tetrahydro-4-hydroxy-3-(1-phenylpropyl)-cyclohepta[b]pyran-2(5H)-one], for which the inhibition at 1 µM amounted to 16.9% and the inhibition at 100 µM was 99.9%. The inhibition at 10 µM under setting [7] stood at 73.8%.

Take `CC(c1cccc(C(=O)NCC(=O)N2CCOCC2)c1)c1c(O)c2ccccc2oc1=O` (centres unmarked) [Example 32, Coumarin, 4-hydroxy-3-[1-[3-[[[[(4-morpholino)carbonyl]methyl]amino]carbonyl]phenyl]ethyl]-]: the inhibition at 1 µM was < 10% and the inhibition at 100 µM worked out at 46.5%. Besides, under setting [7], the inhibition at 10 µM is < 10%.

On to `Nc1ccc(C(c2c(O)c3c(oc2=O)CCCCCC3)C2CC2)cc1` (centres unmarked) [Example 471, 3-[(4-Aminophenyl)cyclopropylmethyl]-5,6,7,8,9,10-hexahydro-4-hydroxy-2H-cycloocta[b]pyran-2-one], for which, under setting [1], the inhibition at 1.1 µM amounted to 37.5%. For the same compound, the inhibition at 3.3 µM under setting [2] was 75.6%. Further, the inhibition at 10 µM under setting [3] was found to be 102%. In addition, the inhibition at 30 µM under setting [4] came out at 110%.

As to `O=c1oc2ccccc2c(O)c1C1CCCCc2ccccc21` (centres unmarked) [Example 75, 4-Hydroxy-3-(5,6,7,8,9-tetrahydro-5H-benzocycloheptenyl)-coumarin], half-maximal inhibition (IC50) required 2400 nM, the inhibition at 1 µM was 14.5% and the inhibition at 100 µM is 96.6%. Further, the inhibition at 10 µM under setting [7] came out at 72.7%.

Take `O=c1oc2c(c(O)c1C(c1ccc(CNS(=O)(=O)c3ccc(F)cc3)o1)C1CC1)CCCCCC2` (centres unmarked) [Example 390]: under setting [1], the inhibition at 1.1 µM was 13.1%. For the same compound, the inhibition at 3.3 µM under setting [2] was determined as 43.6%. For the same compound, under setting [3], the inhibition at 10 µM was determined as 66.4%. Further, under setting [4], the inhibition at 30 µM stood at 85.2%.

Consider `O=c1oc2ccccc2c(O)c1C(c1ccccc1)C1CC1` (centres unmarked) [Example 15, 3-(Cyclopropylphenylmethyl)-4-hydroxycoumarin], for which the IC50 stood at 1250 nM and the inhibition at 1 µM was 43.8%. In addition, the inhibition at 10 µM under setting [7] was 89.6%.

For `O=C(Nc1cccc(C(c2c(O)c3c(oc2=O)CCCCCC3)C2CC2)c1)c1cccc2ccccc12` (centres unmarked) [Example 212, 1-Naphthalenecarboxamide, N-[3-[cyclopropyl(5,6,7,8,9,10-hexahydro4-hydroxy-2-oxo-2H-cyclooct[b]pyran-3-yl)methyl]phenyl]-], the inhibition at 3.3 µM under setting [2] was found to be 32.5%. The inhibition at 10 µM under setting [3] is 59.5%. Under setting [4], the inhibition at 30 µM is 69.5%.

`CCC(c1cccc(NC(=O)CCn2ccc3ccccc32)c1)c1c(O)c2ccccc2oc1=O` (centres unmarked) [Example 63, Coumarin, 4-hydroxy-3-[1-[3-[[3-(^1 H-indol-1-yl)-1-oxopropyl]amino]phenyl]propyl]-]: it took 2000 nM to reach half-maximal inhibition (IC50), the inhibition at 1 µM was determined as 77.6% and the inhibition at 100 µM worked out at 111%. Further, the inhibition at 10 µM under setting [7] was determined as 90.3%.

On to `CCCCOc1ccc(S(=O)(=O)Nc2cccc(C(c3c(O)c4c(oc3=O)CCCCCC4)C3CC3)c2)cc1` (centres unmarked) [Example 406, 4-Butoxy-N-[3-[cyclopropyl(5,6,7,8,9,10-hexahydro-4-hydroxy-2-oxo-2H-cycloocta[b]pyran-3-yl)methyl]phenyl]-benzenesulfonamide], for which the inhibition at 0.123 µM is 37.1% and the inhibition at 0.37 µM amounted to 69.4%. Further, where the note is “dose 1.100 uM”, the “HIV-1 Protease % Inhib” value is recorded as 87.61%. Under “dose 3.300 uM”, the “HIV-1 Protease % Inhib” value worked out at 85.17%. Also, the “HIV-1 Protease % Inhib” value (dose 10.000 uM) was 97.39%. For the setting “dose 30.000 uM”, the “HIV-1 Protease % Inhib” value stood at 97.21%.

`CCC(c1cccc(C(=O)NC2c3ccccc3CC2O)c1)c1c(O)c2ccccc2oc1=O` (centres unmarked) [Example 143, N-(2-Hydroxy-indan-1-yl)-3-(1-(4-hydroxy-2-oxo-2H-chromen-3-yl)-propyl)-benzamide]: the inhibition at 1 µM came out at 10.8% and the inhibition at 100 µM was 92.1%. Moreover, under setting [7], the inhibition at 10 µM turned out to be 77.1%.

As to `CCC(c1cccc(NS(=O)(=O)c2ccc(Cl)cc2)c1)c1c(O)c2c(oc1=O)CCCCCC2` (centres unmarked) [Example 221, Benzenesulfonamide, 4-chloro-N-[3-[1-(5,6,7,8,9,10-hexahydro-4-hydroxy-2-oxo-2H-cycloocta[b]pyran-3-yl)propyl]phenyl]-], the inhibition at 0.123 µM was 79.7% and the inhibition at 0.37 µM amounted to 101%. The inhibition at 1.1 µM under setting [5] turned out to be 116%. For the same compound, the inhibition at 3.3 µM under setting [6] was 117%. The inhibition at 10 µM under setting [7] is 119%. In addition, under setting [8], the inhibition at 30 µM was 124%.

The record behind these values is patent US5686486A, “4-hydroxy-benzopyran-2-ones and 4-hydroxy-cycloalkyl[b]pyran-2-ones useful to treat retroviral infections” (priority 1995, dated 1997).
